The target of test [1] is T1, GBA3 (Homo sapiens, UniProt Q9H227).
T1 construct: expressed in transfected cells; host or cells: HEK293T (GBA/GBA2 KO background for the fluorogenic assay; endogenous-GBA background with GBA2 and GBA3 overexpressed for ABPP and intact-cell assays)
T1 sequence (Q9H227 1-469): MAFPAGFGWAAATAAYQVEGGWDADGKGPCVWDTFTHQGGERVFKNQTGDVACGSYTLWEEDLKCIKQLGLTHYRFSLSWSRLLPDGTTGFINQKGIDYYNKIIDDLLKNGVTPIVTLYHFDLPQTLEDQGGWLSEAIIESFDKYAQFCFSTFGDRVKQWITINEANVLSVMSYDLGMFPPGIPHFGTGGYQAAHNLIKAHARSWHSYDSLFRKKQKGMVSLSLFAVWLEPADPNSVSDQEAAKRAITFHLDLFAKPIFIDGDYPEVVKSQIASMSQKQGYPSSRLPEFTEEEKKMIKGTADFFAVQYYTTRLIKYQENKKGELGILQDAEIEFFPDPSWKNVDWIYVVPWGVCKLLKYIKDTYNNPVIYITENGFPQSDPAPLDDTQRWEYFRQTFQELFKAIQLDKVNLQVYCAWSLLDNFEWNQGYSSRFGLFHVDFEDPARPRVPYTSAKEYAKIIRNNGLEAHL
Nature of the test: Fluorogenic substrate enzymatic assay, lysate of GBA/GBA2 KO HEK293T cells overexpressing GBA3. The class given is biochemical. Conditions: for (Ratio) GBA3/GBA: IC50 ratio. The protocol: Using fluorogenic substrate‐based assays, we determined apparent IC50 values at 30 min incubation time of the xylo‐cyclophellitols in rhGBA, and GBA2 and GBA3 lysates of cells expressing only each of the enzymes specifically.
Enzyme activity assays: All assays were performed with lysates of HEK293T cells or zebrafish larvae in 96‐well plates at 37 °C. Samples were diluted with McIlvaine buffer (150 mM citric acid‐Na2HPO4) to a final volume of 25 μL, at pH appropriate for each enzyme. Assays were performed by incubating the samples with 100 μL 4‐methylumbelliferyl‐β‐D‐glucoside substrates diluted in McIlvaine buffer (with 0.1 % (w/v) bovine serum albumin (BSA)) for a period of 30 min or 3 h. The substrate mixtures used for each enzyme were as follows: GBA, 3.75 mM 4‐MU‐β‐D‐glucopyranoside (Glycosynth, Warrington Cheshire, UK) at pH 5.2, supplemented with 0.2 % (w/v) sodium taurocholate, 0.1 % (v/v) Triton X‐100, 0.1 % (w/v) bovine serum albumin (BSA); GBA2, 3.75 mM 4 MU‐β‐D‐glucopyranoside at pH 5.8; GBA3, 3.75 mM 4‐MU‐β‐D‐glucopyranoside at pH 6.0. After stopping the enzyme reaction with 200 μL 1 M NaOH‐glycine (pH 10.3), 4‐methylumbelliferone fluorescence was measured with a fluorimeter LS55 (Perkin Elmer, Waltham, MA, USA) with λEX 366 nm and λEM 445 nm. Enzyme activities were determined by subtraction of background (measured for incubations without enzyme). IC50 values were determined exactly as earlier described.[36]
The IC50 values were determined using a fluorogenic enzymatic assay. For GBA, 3.16 ng (53 fmol) of rhGBA, (recombinant human GBA, Imiglucerase) obtained from Sanofi Genzyme (Cambridge, MA, USA), was prepared in 12.5 μL McIlvaine buffer (150 mM, pH 5.2) supplemented with 0.1 % (v/v) Triton X‐100, and 0.2 % (w/v) sodium taurocholate, 0.1 % (w/v) bovine serum albumin (BSA). The enzyme was incubated with 12.5 μL of inhibitors diluted in McIlvaine buffer (150 mM, pH 5.2) at 37 °C for 30 min. In the case of GBA2 or GBA3, lysates of GBA/GBA2 KO HEK293T cells overexpressing GBA2 or GBA3, respectively where used. The enzymatic activity of GBA, GBA2 and GBA3 were measured with 4MU‐β‐D‐glucoside substrate as described above.

Test [2] concerns the target T1, GBA3. Nature of the test: Competitive ABPP (cABPP) with ABP 10 in HEK293T cell lysates, GBA3. The class given is biochemical. Conditions: cell lysate, 30 min incubation. The protocol: In the first instance, the inhibitory potency of 1 and 2 for GBA, GBA2, and GBA3 was assessed by competitive activity‐based protein profiling (cABPP). For this, we first generated HEK293T cells that contain endogenous GBA and overexpress human GBA2 and GBA3.
Figure 3 Selectivity of compounds visualized by competitive ABPP labeling of β‐D‐glucosidase. Lysates of HEK293T cells expressing human GBA, GBA2 and GBA3 were incubated with compounds 1–5 at indicated concentrations for 30 min, following by cABPP with ABP 10.
ABP labeling procedure: Glycosidases were labeled with excess fluorescent ABPs at optimum conditions. ABP labeling was performed at 37 °C for 30 min for all materials (if not otherwise stated), in a total sample volume of 20–40 μL and 0.5–1 % DMSO concentration. GBA was labeled with 200 nM ABP 9 (pH 5.2, 0.1 % (v/v) Triton‐100, 0.2 % (w/v) sodium taurocholate), or labeled together with GBA2 using 200 nM β‐D‐glucose‐configured aziridine ABP 10 at pH 5.8, or labeling together with GBA2 and GBA3 using 200 nM β‐D‐glucose‐configured aziridine ABP 10 at pH 6.0. After ABP incubation, proteins were denatured by boiling the samples with 5× Laemmli buffer (50 % (v/v) 1 M Tris‐HCl, pH 6.8, 50 % (v/v) 100 % glycerol, 10 % (w/v) DTT, 10 % (w/v) SDS, 0.01 % (w/v) bromophenol blue) for 5 min at 98 °C, and separated by electrophoresis on 10 % (w/v) SDS‐PAGE gels running continuously at 90 V. Wet slab‐gels were scanned on fluorescence using the Typhoon FLA 9500 (GE Healthcare) at λEX 473 nm and λEM≥510 nm for green fluorescent ABP 8; and at λEX 635 nm and λEM≥665 nm for ABP 6, 9 and 10. ABP‐emitted fluorescence was quantified using ImageQuant software (GE Healthcare, Chicago, IL, USA) and curve‐fitted using Prism 8.0 (GraphPad Software). After fluorescence scanning, SDS‐PAGE gels were stained for total protein with Coomassie G250 and scanned on a ChemiDoc MP imager (Bio‐Rad, Hercules, CA, USA).[25]

Setting [3] is: incubation time 30 min, enzymatic assay, ±SD, n=3, read-out: In vitro apparent IC50 GBA3.

Where two headings read alike, the source gives them in different places.

What is called IC50 is the concentration that gives 50% inhibition. Regarding `CN1/C(=C/C=C/C=C/C2=[N+](CCCCCC(=O)NCc3cn(CCCCCCCCN4[C@H]5[C@H](O)[C@@H](O)[C@H](O)C[C@H]54)nn3)c3ccccc3C2(C)C)C(C)(C)c2ccccc21` (some centres unmarked) [ABP 6], the “(Ratio) GBA3/GBA” value on GBA3 [1] (in vitro, 30 min) is given as 1561. Besides, on GBA3 [1] (setting [3]), the IC50 amounted to 10.1 ± 1 µM.

Take `CN1/C(=C/C=C/C=C/C2=[N+](CCCCCC(=O)NCc3cn(C[C@@H]4[C@@H](O)[C@H](O)[C@@H](O)[C@@H]5O[C@H]45)nn3)c3ccccc3C2(C)C)C(C)(C)c2ccccc21` [ABP 9, reference compound]: the “(Ratio) GBA3/GBA” value at GBA3 [1] (in vitro, 30 min) came to 128. For the same compound, at GBA3 [1] (setting [3]), the IC50 amounted to 5.78 ± 0.079 µM.

In the case of `O[C@@H]1[C@@H](O)[C@H](O)C[C@H]2O[C@@H]12` [compound 1, xylo‐cyclophellitol], the IC50 is > 25 µM on GBA3 [1] (30 min incubation time, read-out: apparent IC50 GBA3) and > 50 µM on GBA3 [1] (setting [3]). In addition, the “(Ratio) GBA3/GBA” value at GBA3 [1] (in vitro, 30 min) is on record as >19. Besides, the “competition of ABP 10 labeling of GBA3” value on GBA3 [2] is “but not that of GBA2 or GBA3”.

Turning to `O[C@@H]1[C@@H](O)[C@H](O)C[C@H]2N[C@@H]12` [compound 2, β‐D‐xylo‐Cyclophellitol aziridine], the “(Ratio) GBA3/GBA” value at GBA3 [1] (in vitro, 30 min) is >35. At GBA3 [1] (setting [3]), the IC50 was > 25 µM.

Turning to `OC[C@@H]1[C@@H](O)[C@H](O)[C@@H](O)[C@@H]2O[C@H]12` [compound 3, cyclophellitol], the “(Ratio) GBA3/GBA” value at GBA3 [1] (in vitro, 30 min) was 129. At GBA3 [1] (setting [3]), the IC50 amounted to 51.5 ± 4.01 µM. Moreover, on GBA3 [2], the “competition of ABP 10 labeling of GBA3” value was “with less potency”.

With `OC[C@@H]1[C@@H](O)[C@H](O)[C@@H](O)[C@@H]2N[C@H]12` [compound 4, cyclophellitol aziridine, reference compound], at GBA3 [1] (in vitro, 30 min), the “(Ratio) GBA3/GBA” value is reported as 99. Also, the IC50 at GBA3 [1] (setting [3]) stood at 33.8 ± 2.43 µM. Moreover, at GBA3 [2], the “competition of ABP 10 labeling of GBA3” value is “with less potency”.

Take `[N-]=[N+]=NCCCCCCCCN1[C@H]2[C@H](O)[C@@H](O)[C@H](O)C[C@H]21` (some centres unmarked) [compound 5]: at GBA3 [1] (in vitro, 30 min), the “(Ratio) GBA3/GBA” value amounted to 486 and the “potency against GBA3 compared to unsubstituted xylo-cyclophellitol aziridine 2” value is reported as > 40 fold. For the same compound, the IC50 on GBA3 [1] (setting [3]) was 0.583 ± 0.202 µM. Besides, at GBA3 [2], the “competition of ABP 10 labeling of GBA3” value was “greatly enhances inhibitory potency”.

Source of the values: article PMC8596838, “Xylose‐Configured Cyclophellitols as Selective Inhibitors for Glucocerebrosidase” (Chembiochem, 2021).
